The text below walks through data of patent US20250154127A1, “BICYCLIC HETEROARYL COMPOUNDS AND USES THEREOF” (ETERN BIOPHARMA (SHANGHAI) CO., LTD., priority 2022, published 2025).

Assay [1] deals with TEAD1(210-426) binding to YAP(50-100) (Homo sapiens, UniProt P28347). Description: TR-FRET Assay for TEAD1(210-426) Binding to YAP(50-100). The following applies: His-TEAD 10 nM, YAP-Biotin peptide 50 nM. In a few lines: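 10 nM His-TEAD1 preincubated 30 min at room temperature with compound (3-fold dilutions, 12 points, 1% DMSO), then 50 nM biotin-YAP peptide added.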
Sequence of TEAD1(210-426) binding to YAP(50-100) (P28347 209-426): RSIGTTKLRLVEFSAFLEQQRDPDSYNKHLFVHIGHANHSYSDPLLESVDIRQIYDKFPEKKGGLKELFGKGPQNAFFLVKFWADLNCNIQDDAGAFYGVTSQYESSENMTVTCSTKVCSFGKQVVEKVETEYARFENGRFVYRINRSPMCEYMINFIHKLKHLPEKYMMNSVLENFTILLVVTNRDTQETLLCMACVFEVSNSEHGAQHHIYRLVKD
On the technique in general: Time-resolved FRET reads energy transfer from a long-lived donor to a nearby acceptor.

A further assay deals with MSTO-211H cells. Kind of assay: Proliferation Assay (CellTiter-Glo Luminescent Cell Viability Assay). It counts as cell-based. The following applies: Homo sapiens, 96 hours treatment. In a few lines:
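MSTO-211H cells, 1,500/well in RPMI 1640 with 10% FBS, plated overnight, then treated 96 h with 9-point 3-fold compound series in duplicate (DMSO below 0.5%). Viability by CellTiter-Glo luminescence; inhibition relative to DMSO wells, IC50 by four-parameter fit.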
(ATP-based viability assays read luminescence as a measure of living cells.)

Molecules are shown by their SMILES.

Usually IC50 stands for the concentration that gives 50% inhibition. A higher IC50 goes with lower potency. For the compound `CN(CCO)c1nccc(Cn2ccc(-c3nn(-c4ccc(C(F)(F)F)cc4)c4c(F)cccc34)cc2=O)n1` [Compound 138, 4-(7-fluoro-1-(4-(trifluoromethyl)phenyl)-1H-indazol-3-yl)-1-((2-((2-hydroxyethyl)(methyl)amino)pyrimidin-4-yl)methyl)pyridin-2(1H)-one], the concentration for half-maximal inhibition (IC50) in assay [1] is 0.1 to 1 µM; with MSTO-211H cells, at most 1 µM.

For `CN(CCO)c1nccc(Cn2ccc(-n3nc(-c4ccc(C(F)(F)F)cc4)c4c(F)cccc43)cc2=O)n1` [Compound 139, 4-(4-fluoro-3-(4-(trifluoromethyl)phenyl)-1H-indazol-1-yl)-1-((2-((2-hydroxyethyl)(methyl)amino)pyrimidin-4-yl)methyl)pyridin-2(1H)-one], the IC50 was at most 0.1 µM in assay [1] and at most 1 µM with MSTO-211H cells.

Consider `CNc1nccc(Cn2ccc(-c3nn(-c4ccc(C(F)(F)F)cc4)c4ccc(F)cc34)cc2=O)n1` [Compound 140, 4-(5-fluoro-1-(4-(trifluoromethyl)phenyl)-1H-indazol-3-yl)-1-((2-(methylamino)pyrimidin-4-yl)methyl)pyridin-2(1H)-one], for which the IC50 is at most 0.1 µM in assay [1] and at most 1 µM in the assay with MSTO-211H cells.

For `CNc1nccc(Cn2ccc(-c3nn(-c4ccc(C(F)(F)F)cc4)c4cc(F)ccc34)cc2=O)n1` [Compound 141, 4-(6-fluoro-1-(4-(trifluoromethyl)phenyl)-1H-indazol-3-yl)-1-((2-(methylamino)pyrimidin-4-yl)methyl)pyridin-2(1H)-one], the IC50 is at most 0.1 µM in assay [1] and at most 1 µM with MSTO-211H cells.

Take `CNc1nccc(Cn2ccc(-c3nn(-c4ccc(C(F)(F)F)cc4)c4c(OC)cccc34)cc2=O)n1` [Compound 142, 4-(7-methoxy-1-(4-(trifluoromethyl)phenyl)-1H-indazol-3-yl)-1-((2-(methylamino)pyrimidin-4-yl)methyl)pyridin-2(1H)-one]: the values for the IC50 (in assay [1]; with MSTO-211H cells) were 0.1 to 1 µM and at most 1 µM, respectively.

Consider `CNc1nccc(Cn2ccc(-c3nn(-c4ccc(C(F)(F)F)cc4)c4c(C)cccc34)cc2=O)n1` [Compound 143, 4-(7-methyl-1-(4-(trifluoromethyl)phenyl)-1H-indazol-3-yl)-1-((2-(methylamino)pyrimidin-4-yl)methyl)pyridin-2(1H)-one], for which the IC50 in assay [1] is 0.1 to 1 µM; with MSTO-211H cells, at most 1 µM.

With `CNc1nccc(Cn2ccc(-c3nn(-c4ccc(OC(F)(F)F)cc4)c4c(F)cccc34)cc2=O)n1` [Compound 145, 4-(7-fluoro-1-(4-(trifluoromethoxy)phenyl)-1H-indazol-3-yl)-1-((2-(methylamino)pyrimidin-4-yl)methyl)pyridin-2(1H)-one], the IC50 in assay [1] was at most 0.1 µM; in the assay on MSTO-211H cells, at most 1 µM.

As for `CNc1nccc(Cn2ccc(-c3nn(-c4ccc(Cl)cc4)c4c(F)cccc34)cc2=O)n1` [Compound 146, 4-(1-(4-chlorophenyl)-7-fluoro-1H-indazol-3-yl)-1-((2-(methylamino)pyrimidin-4-yl)methyl)pyridin-2(1H)-one], the values for the IC50 (in assay [1]; in the assay with MSTO-211H cells) were at most 0.1 µM and at most 1 µM, respectively.

Consider `COCCN(C)c1nccc(Cn2ccc(-c3nn(-c4ccc(C(F)(F)F)cc4)c4c(F)cccc34)cc2=O)n1` [Compound 147, 4-(7-fluoro-1-(4-(trifluoromethyl)phenyl)-1H-indazol-3-yl)-1-((2-((2-methoxyethyl)(methyl)amino)pyrimidin-4-yl)methyl)pyridin-2(1H)-one], for which the IC50 in assay [1] was at most 0.1 µM; in the assay with MSTO-211H cells it was at most 1 µM.

With `O=c1cc(-c2nn(-c3ccc(C(F)(F)F)cc3)c3c(Cl)cccc23)ccn1Cc1ccnc(NCCO)n1` [Compound 148, 4-(7-chloro-1-(4-(trifluoromethyl)phenyl)-1H-indazol-3-yl)-1-((2-((2hydroxyethyl)amino)pyrimidin-4-yl)methyl)pyridin-2(1H)-one], the IC50 in assay [1] was at most 0.1 µM; in the assay on MSTO-211H cells, at most 1 µM.

Turning to `CNc1nccc(Cn2ccc(-c3nn(-c4ccc(C5CC5)cc4)c4c(F)cccc34)cc2=O)n1` [Compound 149, 4-(1-(4-cyclopropylphenyl)-7-fluoro-1H-indazol-3-yl)-1-((2-(methylamino)pyrimidin-4-yl)methyl)pyridin-2(1H)-one], the IC50 was at most 0.1 µM in assay [1] and at most 1 µM with MSTO-211H cells.

For `COCCNc1nccc(Cn2ccc(-c3nn(-c4ccc(OC(F)(F)F)cc4)c4c(F)cccc34)cc2=O)n1` [Compound 150, 4-(7-fluoro-1-(4-(trifluoromethoxy)phenyl)-1H-indazol-3-yl)-1-((2-((2-methoxyethyl)amino)pyrimidin-4-yl)methyl)pyridin-2(1H)-one], the IC50 in assay [1] was at most 0.1 µM; in the assay on MSTO-211H cells, at most 1 µM.

Consider `O=c1cc(-c2nn(-c3ccc(OC(F)(F)F)cc3)c3c(F)cccc23)ccn1Cc1ccnc(NCCO)n1` [Compound 151, 4-(7-fluoro-1-(4-(trifluoromethoxy)phenyl)-1H-indazol-3-yl)-1-((2-((2-hydroxyethyl)amino)pyrimidin-4-yl)methyl)pyridin-2(1H)-one], for which the IC50 in assay [1] is at most 0.1 µM; in the assay with MSTO-211H cells it was at most 1 µM.

On to `CNc1nccc(Cn2ccc(-c3nn(-c4ccc(C5COC5)cc4)c4c(F)cccc34)cc2=O)n1` [Compound 152], for which the IC50 is at most 0.1 µM in assay [1] and at most 1 µM in the assay with MSTO-211H cells.

Take `O=c1cc(-c2nn(-c3ccc(C(F)(F)F)cc3)c3cccc(F)c23)ccn1Cc1ccnc(OCCO)n1` [Compound 153, 4-(4-fluoro-1-(4-(trifluoromethyl)phenyl)-1H-indazol-3-yl)-1-((2-(2-hydroxyethoxy)pyrimidin-4-yl)methyl)pyridin-2(1H)-one]: the IC50 is at most 0.1 µM in assay [1] and at most 1 µM in the assay on MSTO-211H cells.

Turning to `COCCOc1nccc(Cn2ccc(-c3nn(-c4ccc(C(F)(F)F)cc4)c4cccc(F)c34)cc2=O)n1` [Compound 154, 4-(4-fluoro-1-(4-(trifluoromethyl)phenyl)-1H-indazol-3-yl)-1-((2-(2-methoxyethoxy)pyrimidin-4-yl)methyl)pyridin-2(1H)-one], the IC50 is at most 0.1 µM in assay [1] and at most 1 µM with MSTO-211H cells.

As to `COCCN(C)c1nccc(Cn2ccc(-c3nn(-c4ccc(C(F)(F)F)cc4)c4cccc(F)c34)cc2=O)n1` [Compound 155, 4-(4-fluoro-1-(4-(trifluoromethyl)phenyl)-1H-indazol-3-yl)-1-((2-((2-methoxyethyl)(methyl)amino)pyrimidin-4-yl)methyl)pyridin-2(1H)-one], the IC50 in assay [1] is 0.1 to 1 µM; in the assay on MSTO-211H cells, at most 1 µM.

Turning to `O=c1cc(-c2nn(-c3ccc(C(F)(F)F)cc3)c3c(F)cccc23)ccn1Cc1ccnc(Cl)n1` [Compound 157, 1-((2-chloropyrimidin-4-yl)methyl)-4-(7-fluoro-1-(4-(trifluoromethyl)phenyl)-1H-indazol-3-yl)pyridin-2(1H)-one], the IC50 in assay [1] was at most 0.1 µM; in the assay with MSTO-211H cells it was at most 1 µM.

As for `CNc1nccc(Cn2ccc(-c3nn(-c4ccc(C(F)(F)F)cc4)c4cccc(F)c34)cc2=O)n1` [Compound 158, 4-(1-(4-((difluoro-13-methyl)-12-fluoranyl)phenyl)-4-fluoro-1H-indazol-3-yl)-1-((2-(methylamino)pyrimidin-4-yl)methyl)pyridin-2(1H)-one], the IC50 in assay [1] was at most 0.1 µM; in the assay with MSTO-211H cells it was at most 1 µM.
